Measured values reported in US20220168300A1, “Methods of Managing Vascular Conditions and Diabetic Peripheral Neuropathies” (Emory University, priority 2019, published 2022).

What was measured:
[1] = leading to increases in H3/H4 acetylation in brain tissue; cited from earlier work
[2] = Blood glucose and body weight in diabetic mice; format: in vivo; details: 50 mg/kg/day intraperitoneal for 4 weeks
Description: To investigate the preventive therapeutic effects of direct injection of belinostat on diabetic nerves, streptozotocin (STZ)-induced diabetic mice were randomly assigned to solvent-treated (DM) as vehicle controls or HDAC inhibitor-treated (DM+HDACi) groups. […] Belinostat was resuspended in 45% (2-hydroypropyl)-beta-cyclodextrin (HP-β-CD) and injected into mice via the intraperitoneal route at 50 mg/kg/day for 4 weeks.

[3] = test system: streptozotocin (STZ)-induced diabetic mice; experiment: Sensory and motor nerve conduction velocities in diabetic neuropathy model; format: in vivo
Description: To investigate the preventive therapeutic effects of direct injection of belinostat on diabetic nerves, streptozotocin (STZ)-induced diabetic mice were randomly assigned to solvent-treated (DM) as vehicle controls or HDAC inhibitor-treated (DM+HDACi) groups. […] After intraperitoneal injection of belinostat or an equal volume of solvent vehicle (HP-β-CD), both sensory and motor nerve conduction velocities (NCVs) were measured for 18 weeks at every week (n=11-14, each group) from 0 week after treatment. Non-diabetic mice, which received solvent vehicle (HP-j-CD), were used as controls (NDM).

[4] = test system: streptozotocin (STZ)-induced diabetic mice; experiment: Tactile allodynia (von Frey hair testing); format: in vivo
Description: To investigate the preventive therapeutic effects of direct injection of belinostat on diabetic nerves, streptozotocin (STZ)-induced diabetic mice were randomly assigned to solvent-treated (DM) as vehicle controls or HDAC inhibitor-treated (DM+HDACi) groups. […] To investigate preventive effects of belinostat in diabetic neuropathy, tactile response threshold, thermal withdrawal latency, and rotarod performance were tested. For assay of tactile allodynia, mice were transferred to a glass cage with a wire mesh floor allowing access to the plantar surface of the hind paws. Behavioral accommodation was allowed for approximately 15 min until cage exploration and major grooming activities ceased.

[5] = test system: streptozotocin (STZ)-induced diabetic mice; experiment: Paw thermal withdrawal latency; format: in vivo
Description: To investigate the preventive therapeutic effects of direct injection of belinostat on diabetic nerves, streptozotocin (STZ)-induced diabetic mice were randomly assigned to solvent-treated (DM) as vehicle controls or HDAC inhibitor-treated (DM+HDACi) groups. […] For measurement of paw thermal withdrawal latency, mice were placed in an observation chamber on top of the thermal testing apparatus and allowed to acclimate to the warmed glass surface (30° C.) and surroundings for 15 min. The mobile heat source was maneuvered to below the center of the right hind paw and turned on, a process that activates a timer and locally warms the glass surface at a rate of approximately 1° C./s. When the mouse withdrew the paw, movement sensors stopped the timer and turned off the heat source. Right hind paw was measured three times and the mean of three measurements used as a composite source for each mouse. The response latency was converted to the response temperature using a time: floor temperature calibration curve that was constructed each day to allow for day-to-day variations in the surface heating rate.

[6] = test system: streptozotocin (STZ)-induced diabetic mice; experiment: Rotarod performance test; format: in vivo
Description: To investigate the preventive therapeutic effects of direct injection of belinostat on diabetic nerves, streptozotocin (STZ)-induced diabetic mice were randomly assigned to solvent-treated (DM) as vehicle controls or HDAC inhibitor-treated (DM+HDACi) groups. […] For rotarod performance test, mice were placed on a rotarod apparatus to assess motor coordination and physical condition. Before the training session, each mouse was habituated to stay on the spindle with slow constant speed for 5 min. Mice were trained for 5 min at 45 rpm before measurement. The horizontal rod rotating by 45 rpm and the maximal length of observation time for each trial was 5 min.

[7] = test system: streptozotocin (STZ)-induced diabetic mice; experiment: Vascularization of sciatic nerves (FITC-conjugated BSL1); format: in vivo; details: DM+HDACi, 18 weeks after treatment
[8] = test system: streptozotocin (STZ)-induced diabetic mice; experiment: Intraepidermal nerve fiber density (PGP9.5 staining) in hind paw plantar skin; format: in vivo; details: DM+HDACi group
Description: To investigate the preventive therapeutic effects of direct injection of belinostat on diabetic nerves, streptozotocin (STZ)-induced diabetic mice were randomly assigned to solvent-treated (DM) as vehicle controls or HDAC inhibitor-treated (DM+HDACi) groups. […] To evaluate the protective effect of belinostat on diabetic intraepidermal nerve fiber, we stained IENF in hind paw plantar skin with pan-neuronal marker PGP9.5 and counted the number of fibers throughout the epidermis relative to length of tissue.

[9] = test system: streptozotocin (STZ)-induced diabetic mice; experiment: Light and electron microscopy of sciatic nerve myelinated fibers; format: in vivo; details: DM+HDACi
Description: To investigate the preventive therapeutic effects of direct injection of belinostat on diabetic nerves, streptozotocin (STZ)-induced diabetic mice were randomly assigned to solvent-treated (DM) as vehicle controls or HDAC inhibitor-treated (DM+HDACi) groups. […] It was examined whether belinostat could affect the ultrastructure of diabetic nerves, which is characterized by morphological alterations in the myelin sheath, a hallmark of DN. Accordingly, light microscopy and transmission electron microscopy were performed on sciatic nerves obtained at 18 weeks after STZ injection. The alternation of myelination pattern was categorized into four groups: decompaction, infolding, focal lysis, and splitting. […] Axonal atrophy is associated with slowing of nerve conduction but is difficult to distinguish from loss of large diameter axons. A reduced index of circularity and an increased g-ratio supports the axonal atrophy. […] A loss of large diameter axons in the peripheral nerve system is the most frequent consequence of metabolic diseases such as diabetes.

[10] = test system: HUVECs, Schwann cells (S16), and DRG neurons (ND7/23); experiment: Quantitative RT-PCR of gene expression in cells cultured in diabetic (high glucose) condition; details: in vitro experimental data using cells
Description: To determine effects of different types of HDAC inhibitors on different target cells, cells were cultured in diabetic condition (450 mg/dl glucose, 7 days) and were treated HDAC inhibitors for 7 days.

Diabetic EPCs (D-EPCs) = experiment: DNA methylation (MSRE-PCR) and gene expression of angiogenic genes in D-EPCs; format: cell-based, rat
Description: Rescue of epigenetic silencing of angiogenic genes in D-EPCs Diabetic EPCs (D-EPCs) have high methylation in the promoter regions of key angiogenic and neurotrophic genes and small molecular epigenetic regulators can reverse these changes, increase gene expression and improve cellular functions. To prepare D-EPCs streptozotocin (STZ) was used to induce diabetic conditions. Differential expression of angiogenic genes was investigated between normal EPCs (N-EPCs) and D-EPCs using an Angiogenesis Microarray kit. The expression of many angiogenic genes was suppressed in D-EPCs. In this disclosure, histone deacetylase (HDAC) inhibitors, i.e., Vorinostat (Zolinza, SAHA), Belinostat (Beleodaq, PXD-101), and Quisinostat (JNJ-26481585), were used. The preliminary experiments were performed using rat EPCs as well as human and rat MSCs. To test the reversible changes of gene expression and epigenetic modifications in D-EPCs by small molecule epigenetic regulators, epigenetic profiling studies were performed using methylation-sensitive restriction enzyme (MSRE)-PCR assays. An HDAC inhibitor, valproic acid (VPA), was used as the epigenetic regulator.

[11] = sciatic nerve 18 weeks after STZ, n=406
[12] = sciatic nerve, P<0.001 versus DM

## O=C(CCCCCCC(=O)Nc1ccccc1)NO [SAHA, suberoylanilide hydroxamic acid]
[1]
  blood-brain-barrier (BBB) crossing: can cross the blood-brain-barrier

## O=C(/C=C/c1cccc(S(=O)(=O)Nc2ccccc2)c1)NO [Belinostat, (E)-N-hydroxy-3-[3-(phenylsulfamoyl)phenyl]prop-2-enamide]
[2]
  blood glucose levels and animal body weight compared to DM group: did not significantly alter
[3]; DM+HDACi group, over 15 weeks, 50 mg/kg/day i.p. for 4 weeks, P<0.001 versus DM
  sensory NCV: 34.76±0.61 m/s
[3]; DM+HDACi group, over 15 weeks, 50 mg/kg/day i.p. for 4 weeks, P<0.05 versus DM
  motor NCV: 51.15±2.60 m/s
[3]; FIG. 1A, direct injection, diabetic mice
  nerve conduction velocities (NCVs), effect in words: improved
[3]; FIG. 1B, diabetic mice over 15 weeks
  motor NCVs, effect in words: significantly improved
[4]; DM+HDACi group at 3 weeks of diabetes
  paw withdrawal threshold (von Frey): 0.15 ± 0.09 g
[4]; DM+HDACi group at 14 weeks after HDAC inhibitor injection, P<0.001 versus DM
  paw withdrawal threshold (von Frey): 1.33 ± 0.30 g
[4]; FIG. 2A, 14 weeks after belinostat injection
  paw withdrawal thresholds, effect in words: recovered to nondiabetic group
[5]; DM+HDACi group at 12 weeks of diabetes, P<0.001 versus DM
  paw withdrawal temperature: 34.30±0.24 °C
[5]; FIG. 2B, HDAC treated group
  thermal withdrawal latency, effect in words: maintained
[6]; DM+HDACi group, 45 rpm, max 5 min
  rotarod fall latency: 254.77 ± 25.23 s
[6]; FIG. 2C
  rotarod performance, DM versus DM+HDACi: no significant difference
[7]
  vascularity in sciatic nerves: increased vascularity
[8]
  number of intraepidermal nerve fibers (IENF): 30.61±1.83 IENF/mm
[9]
  g-ratio of myelinated sciatic nerve: 0.65±0.0044
[9]; sciatic nerve
  reduction of axonal circularity compared to NDM: 10.3%
[9]; [11]
  altered myelination pattern: decompaction: 6.35%
  altered myelination pattern: focal lysis: 7.22%
  altered myelination pattern: infolding: 1.49%
  altered myelination pattern: splitting: 0%
[9]; [12]
  axon diameter of myelinated axons: 4.17 ± 0.1 µm
  index of circularity of axon: 0.70
[10]
  upregulation of gene expression in vitro, compared to vorinostat and quisinostat: superior properties

## CCCC(CCC)C(=O)O [VPA, valproic acid]
Diabetic EPCs (D-EPCs)
  angiogenic gene expression: enhanced gene expression
Diabetic EPCs (D-EPCs); MSRE-PCR
  DNA methylation at promoters of angiogenic genes: reduced DNA methylation
